Values quoted from earlier work as cited in US12433839B2, “Sustained release particle formulations” (Adare Pharmaceuticals USA, Inc., priority 2011, dated 2025).

Conditions: in vivo

**Q.** For `COc1ccccc1OCC(O)CO` (stereo not shown) [guaifenesin], which typical plasma half-life is on record?
**A.** about one
